In patent US10407425B2, “Indazole inhibitors of the Wnt signal pathway and therapeutic uses thereof” (Samumed, LLC, priority 2012, dated 2019):

system: Wnt activity; assay: Wnt activity reporter assay (SP5 promoter firefly luciferase in SW480 cells); assay type: cell-based; details: Homo sapiens; SW480 cells bearing SP5 promoter luciferase reporter; 24 h after compound addition; read-out: Wnt inhibition
Text: The above synthesized compounds were screened using the assay procedure for Wnt activity described below.
Reporter cell lines can be generated by stably transducing cells of cancer cell lines (e.g., colon cancer) with a lentiviral construct that include a wnt-responsive promoter driving expression of the firefly luciferase gene.
Lentiviral constructs can be made in which the SP5 promoter, a promoter having eight TCF/LEF binding sites derived from the SP5 promoter, is linked upstream of the firefly luciferase gene. The lentiviral constructs can also include a hygromycin resistance gene as a selectable marker. The SP5 promoter construct can be used to transduce SW480 cells, a colon cancer cell line having a mutated APC gene that generates a truncated APC protein, leading to de-regulated accumulation of β-catenin.
Cultured SW480 cells bearing a reporter construct can be distributed at approximately 10,000 cells per well into 384 well multiwell plates. Compounds from a small molecule compound library can then be added to the wells in half-log dilutions using a three micromolar top concentration. A series of control wells for each cell type receive only buffer and compound solvent. Twenty-four hours after the addition of compound, reporter activity for luciferases can be assayed, for example, by addition of the BrightGlo luminescence reagent (Promega) and the Victor3 plate reader (Perkin Elmer). Readings can be normalized to DMSO only treated cells, and normalized activities can then be used in the IC50 calculations.

First: O=C(Nc1cncc(-c2ccc3[nH]nc(-c4nc5ccncc5[nH]4)c3c2)c1)C1CCCCC1 [Compound 286, N-(5-(3-(3H-Imidazo[4,5-c]pyridin-2-yl)-1H-indazol-5-yl)pyridin-3-yl)cyclohexanecarboxamide]
Second: O=C(Nc1cncc(-c2ccc3[nH]nc(-c4nc5c(-c6ccncc6)cncc5[nH]4)c3c2)c1)C1CCCC1 [Compound 170, N-(5-(3-(7-(Pyridin-4-yl)-3H-imidazo[4,5-c]pyridin-2-yl)-1H-indazol-5-yl)pyridin-3-yl)cyclopentanecarboxamide]
The IC50 of the first is 12-fold lower: 0.569 µM for the first, 7 µM for the second.

Compared with `O=C(Nc1cncc(-c2ccc3[nH]nc(-c4nc5c(-c6cccc(F)c6)cncc5[nH]4)c3c2)c1)C1CC1` [Compound 91, N-(5-(3-(7-(3-Fluorophenyl)-3H-imidazo[4,5-c]pyridin-2-yl)-1H-indazol-5-yl)pyridin-3-yl)cyclopropanecarboxamide], `O=C(Nc1cncc(-c2ccc3[nH]nc(-c4nc5c(-c6ccoc6)cncc5[nH]4)c3c2)c1)C1CC1` [Compound 330, N-(5-(3-(7-(Furan-3-yl)-3H-imidazo[4,5-c]pyridin-2-yl)-1H-indazol-5-yl)pyridin-3-yl)cyclopropanecarboxamide] is 370-fold higher in IC50: 0.002 µM for the first, 0.739 µM for the second.

First: CN(C)Cc1cncc(-c2ccc3[nH]nc(-c4nc5c(-c6ccsc6)cncc5[nH]4)c3c2)c1 [Compound 301, N,N-Dimethyl-1-(5-(3-(7-(thiophen-3-yl)-3H-imidazo[4,5-c]pyridin-2-yl)-1H-indazol-5-yl)pyridin-3-yl)methanamine]
Second: Nc1cncc(-c2ccc3[nH]nc(-c4nc5c(-c6ccsc6)cncc5[nH]4)c3c2)c1 [Compound 291, 5-(3-(7-(Thiophen-3-yl)-3H-imidazo[4,5-c]pyridin-2-yl)-1H-indazol-5-yl)pyridin-3-amine]
The IC50 of the first is 34-fold higher: 0.069 µM for the first, 0.002 µM for the second.

Going from `c1cc(-c2cncc3[nH]c(-c4n[nH]c5ccc(-c6cncc(CN7CCCCC7)c6)cc45)nc23)cs1` [Compound 303, 2-(5-(5-(Piperidin-1-ylmethyl)pyridin-3-yl)-1H-indazol-3-yl)-7-(thiophen-3-yl)-3H-imidazo[4,5-c]pyridine] to `Fc1ccc(-c2cncc3[nH]c(-c4n[nH]c5ccc(-c6cncc(CN7CCCC7)c6)cc45)nc23)cc1` [Compound 107, 7-(4-Fluorophenyl)-2-(5-(5-(pyrrolidin-1-ylmethyl)pyridin-3-yl)-1H-indazol-3-yl)-3H-imidazo[4,5-c]pyridine], the IC50 falls from 1 µM to 0.052 µM (19-fold). The second is the more potent here.

Compared with `O=C(Nc1cncc(-c2ccc3[nH]nc(-c4nc5c(N6CCCCC6)cncc5[nH]4)c3c2)c1)C1CCC1` [Compound 217, N-(5-(3-(7-(Piperidin-1-yl)-3H-imidazo[4,5-c]pyridin-2-yl)-1H-indazol-5-yl)pyridin-3-yl)cyclobutanecarboxamide], `CN1CCN(c2cncc3[nH]c(-c4n[nH]c5ccc(-c6cncc(NC(=O)C7CC7)c6)cc45)nc23)CC1` [Compound 260, N-(5-(3-(7-(4-Methylpiperazin-1-yl)-3H-imidazo[4,5-c]pyridin-2-yl)-1H-indazol-5-yl)pyridin-3-yl)cyclopropanecarboxamide] is 8.1-fold higher in IC50: 0.039 µM for the first, 0.315 µM for the second. The first is the more potent here.

Compared with `O=C(Nc1cncc(-c2ccc3[nH]nc(-c4nc5c(-c6ccc(F)cc6)cncc5[nH]4)c3c2)c1)c1ccccc1` [Compound 104, N-(5-(3-(7-(4-Fluorophenyl)-3H-imidazo[4,5-c]pyridin-2-yl)-1H-indazol-5-yl)pyridin-3-yl)benzamide], `O=C(Nc1cncc(-c2ccc3[nH]nc(-c4nc5ccncc5[nH]4)c3c2)c1)c1ccccc1` [Compound 275, N-(5-(3-(3H-Imidazo[4,5-c]pyridin-2-yl)-1H-indazol-5-yl)pyridin-3-yl)benzamide] is 20-fold higher in IC50: 0.007 µM for the first, 0.141 µM for the second.

Compared with `CCC(=O)Nc1cncc(-c2ccc3[nH]nc(-c4nc5c(-c6ccccn6)cncc5[nH]4)c3c2)c1` [Compound 174, N-(5-(3-(7-(Pyridin-2-yl)-3H-imidazo[4,5-c]pyridin-2-yl)-1H-indazol-5-yl)pyridin-3-yl)propionamide], `CN1CCN(c2cncc3[nH]c(-c4n[nH]c5ccc(-c6cccnc6)cc45)nc23)CC1` [Compound 4, 7-(4-methylpiperazin-1-yl)-2-(5-(pyridin-3-yl)-1H-indazol-3-yl)-3H-imidazo[4,5-c]pyridine] is higher in IC50: 0.003 µM for the first, 0.013 to 0.04 µM for the second.

With `CN1CCN(c2cncc(-c3ccc4[nH]nc(-c5nc6ccncc6[nH]5)c4c3)c2)CC1` [Compound 7, 2-(5-(5-(4-methylpiperazin-1-yl)pyridin-3-yl)-1H-indazol-3-yl)-3H-imidazo[4,5-c]pyridine] the IC50 was 0.214 to 0.463 µM.
